Experimental data published in PubChem BioAssay AID1918952 (Molecular Pharmacology Branch, DTP, NCI, 2023).

Test system: LG0703-F948-PDC complex spheroid viability
Experiment: Anticancer human tumor LG0703-F948-PDC patient-derived lung adenocarcinoma cell line growth inhibition
Settings: for IC50: curve of first compound; for viability, T/C: stronger effect = lower value; active means viability on the fitted dose curve at most 10% of control; inactive means the rest
Procedure, shortened: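 Complex spheroids of tumor cells with HUVEC and human MSCs, exposed to iadademstat combined with other agents. Each agent tested in half-log steps from near clinical Cmax (else 10 microM top), DMSO ≤0.25%.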
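Further: spheroids exposed to agents for seven days before readout.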
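Wherever viability, T/C is given: 100% = DMSO vehicle control wells as normalization base.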

COc1cc(Nc2ncc3c(n2)-c2ccc(Cl)cc2C(c2c(F)cccc2OC)=NC3)ccc1C(=O)O + NC1CCC(NC2CC2c2ccccc2)CC1
active: viability, T/C (second compound 0.1 µM, first compound 1 µM) 6.3% | viability, T/C (second compound 0.316 µM, first compound 1 µM) 5.23% | viability, T/C (second compound 1 µM, first compound 1 µM) 5.15% | viability, T/C (second compound 3.16 µM, first compound 1 µM) 4.29% | viability, T/C (second compound 10 µM, first compound 1 µM) 2.91%
0.229 µM: IC50 (second compound 3.16 µM) | IC50 (second compound 10 µM)
0.201 µM: IC50 (second compound 1 µM)
0.218 µM: IC50 (second compound 0.1 µM)
inactive: viability, T/C (second compound 0.1 µM, first compound 0.00316 µM) 87.8% | viability, T/C (second compound 0.1 µM, first compound 0.01 µM) 80.6% | viability, T/C (second compound 0.1 µM, first compound 0.0316 µM) 81.6% | viability, T/C (second compound 0.1 µM, first compound 0.1 µM) 73.5% | viability, T/C (second compound 0.1 µM, first compound 0.316 µM) 38.9% | viability, T/C (second compound 0.316 µM, first compound 0.00316 µM) 96.4% | viability, T/C (second compound 0.316 µM, first compound 0.01 µM) 86.7% | viability, T/C (second compound 0.316 µM, first compound 0.0316 µM) 79.8% | viability, T/C (second compound 0.316 µM, first compound 0.1 µM) 61.6% | viability, T/C (second compound 0.316 µM, first compound 0.316 µM) 36.6% | viability, T/C (second compound 1 µM, first compound 0.00316 µM) 104% | viability, T/C (second compound 1 µM, first compound 0.01 µM) 87.6% | viability, T/C (second compound 1 µM, first compound 0.0316 µM) 91.4% | viability, T/C (second compound 1 µM, first compound 0.1 µM) 71% | viability, T/C (second compound 1 µM, first compound 0.316 µM) 36.2% | viability, T/C (second compound 3.16 µM, first compound 0.00316 µM) 110% | viability, T/C (second compound 3.16 µM, first compound 0.01 µM) 94.1% | viability, T/C (second compound 3.16 µM, first compound 0.0316 µM) 94.4% | viability, T/C (second compound 3.16 µM, first compound 0.1 µM) 83.7% | viability, T/C (second compound 3.16 µM, first compound 0.316 µM) 36.9% | viability, T/C (second compound 10 µM, first compound 0.00316 µM) 108% | viability, T/C (second compound 10 µM, first compound 0.01 µM) 85.3% | viability, T/C (second compound 10 µM, first compound 0.0316 µM) 89.9% | viability, T/C (second compound 10 µM, first compound 0.1 µM) 83.7% | viability, T/C (second compound 10 µM, first compound 0.316 µM) 37.1%
0.172 µM: IC50 (second compound 0.316 µM)

O=C(C=Cc1cccc(S(=O)(=O)Nc2ccccc2)c1)NO + NC1CCC(NC2CC2c2ccccc2)CC1
0.0782 µM: IC50 (second compound 0.1 µM)
0.0832 µM: IC50 (second compound 1 µM)
active: viability, T/C (second compound 0.1 µM, first compound 0.3 µM) 10.5% | viability, T/C (second compound 0.1 µM, first compound 0.949 µM) 1.71% | viability, T/C (second compound 0.1 µM, first compound 3 µM) 0.44% | viability, T/C (second compound 0.316 µM, first compound 0.949 µM) 1.43% | viability, T/C (second compound 0.316 µM, first compound 3 µM) 0.17% | viability, T/C (second compound 1 µM, first compound 0.949 µM) 1.34% | viability, T/C (second compound 1 µM, first compound 3 µM) 0.11% | viability, T/C (second compound 3.16 µM, first compound 0.3 µM) 8.17% | viability, T/C (second compound 3.16 µM, first compound 0.949 µM) 0.32% | viability, T/C (second compound 3.16 µM, first compound 3 µM) 0.12% | viability, T/C (second compound 10 µM, first compound 0.3 µM) 4% | viability, T/C (second compound 10 µM, first compound 0.949 µM) 0.21% | viability, T/C (second compound 10 µM, first compound 3 µM) 0.19%
inactive: viability, T/C (second compound 0.1 µM, first compound 0.00949 µM) 103% | viability, T/C (second compound 0.1 µM, first compound 0.03 µM) 88% | viability, T/C (second compound 0.1 µM, first compound 0.0949 µM) 41.8% | viability, T/C (second compound 0.316 µM, first compound 0.00949 µM) 114% | viability, T/C (second compound 0.316 µM, first compound 0.03 µM) 93.5% | viability, T/C (second compound 0.316 µM, first compound 0.0949 µM) 44.5% | viability, T/C (second compound 0.316 µM, first compound 0.3 µM) 10.6% | viability, T/C (second compound 1 µM, first compound 0.00949 µM) 126% | viability, T/C (second compound 1 µM, first compound 0.03 µM) 89.5% | viability, T/C (second compound 1 µM, first compound 0.0949 µM) 48.5% | viability, T/C (second compound 1 µM, first compound 0.3 µM) 9.18% | viability, T/C (second compound 3.16 µM, first compound 0.00949 µM) 102% | viability, T/C (second compound 3.16 µM, first compound 0.03 µM) 86% | viability, T/C (second compound 3.16 µM, first compound 0.0949 µM) 42.9% | viability, T/C (second compound 10 µM, first compound 0.00949 µM) 114% | viability, T/C (second compound 10 µM, first compound 0.03 µM) 77.3% | viability, T/C (second compound 10 µM, first compound 0.0949 µM) 29.8%
0.0778 µM: IC50 (second compound 3.16 µM)
0.0835 µM: IC50 (second compound 0.316 µM)
0.0576 µM: IC50 (second compound 10 µM)
